- melting point: 144 to 148 °C
Structure (SMILES): CC(C)N(C)S(=O)(=O)NC(=O)c1cc(N=C=O)c(F)cc1Cl
